Tests used:
[1] = test system: cellular microtubules in HeLa cells; assay: Quantitative immunoluminescent assay of the cellular microtubule content; type: cell-based; details: Homo sapiens, 0.5 h, 30 min incubation, mean ± SEM, read-out: IC50, drug concentration able to reduce the amount of cellular microtubules by half
Protocol: 7500 HeLa cells were seeded in 96-well microplates (#655086, Greiner bio One, Courtaboeuf, France) in 100 µL of complete medium per well and then incubated at 37 °C in 5% CO2 for 24 h. Cells were then treated for 30 min at 37 °C with the compounds at concentrations ranging from 1 to 5000 nM (1 microplate per molecule, 1 concentration per column), with 0.1% DMSO used as […] control (6 wells per microplate). After medium aspiration, treated cells were permeabilized for 10 min using 100 µL per well of warmed (37 °C) OPT buffer (80 mM Pipes, 1 mM EGTA, 1 mM MgCl2, 0.5% Triton X-100, and 10% glycerol, pH 6.8). Cells were fixed overnight at room temperature using 100 µL per well of 4% formaldehyde (Sigma Aldrich, #252549, Saint-Quentin-Fallavier, France) in PBS. Cells were washed 3 times in PBS, 0.1% Tween-20 (100 µL per well), then primary anti-alpha-tubulin antibody (clone α3A1 [40], 1:5000 in PBS 2% Bovine Serum Albumin (BSA)) was added for 45 min. Cells were washed twice again and secondary anti-mouse antibody coupled to HRP (1:2000 in PBS 2% BSA, #715-035-150, Jackson Immuno-Research Laboratories, Cambridgeshire, UK) was added for 45 min. Then, cells were washed again with PBS and 100 µL of ECL substrate (#170-5061, Bio-Rad Laboratories inc., USA) were injected in each well using the FLUOstar OPTIMA Microplate Reader (BMG Lab technology, Champagny-sur-Marne, France). The luminescent signal was read immediately after ECL injection.

HeLa cells microtubules = assay: Immunofluorescence analysis of HeLa cells microtubules; type: cell-based, Human; details: 50 nM, 30 min
Protocol: (§1) Cells at a density of 20,000 cells per well were grown for 48 h on glass coverslips placed in a 24-well microplate. When cells reached 70% confluence, the medium was replaced with a fresh one supplemented with DMSO (0.005% or 0.01%) or the test compound at 50 nM or 1000 nM. After 30 min of incubation, cells were permeabilized in warm OPT buffer (80 mmol/L Pipes, […], 0.5% Triton X-100 and 10% Glycerol, pH 6.8) and fixed for 6 min in −20 °C methanol (Carlo ERBA SAS, #414855, Val-de-Reuil, France). After washing and saturation with a specific blocking buffer (3% BSA), 10% Goat serum (Gibco Invitrogen, #16210064, Carlsbad, CA, USA) in PBS), cells were incubated for 45 min at room temperature (RT) with anti-alpha-tubulin antibody (clone α3A1 [40] in blocking buffer). Cells were washed twice again and subsequently incubated with Alexa 488 conjugated anti-mouse antibody (1:500 in blocking buffer, #115-545-166, Jackson immune-research laboratory, Cambridgeshire, UK) and DNA was stained with Hoechst 33342 (1:10,000 in blocking buffer) for 30 min at RT. Coverslips were mounted on glass slides with Moviol 4–88.
(§2) Images were captured with a Zeiss AxioimagerM2 microscope equipped with the acquisition software AxioVision (Marly-le-Roi, France).

RPE1 cell microtubules = assay: Immunofluorescence analysis of RPE1 cell microtubules; type: cell-based, human; details: RPE1 cells, 50 nM, 30 min
Protocol: as §1, §2

HeLa cells = assay: Cell viability, PrestoBlue assay, HeLa; type: cell-based; details: Homo sapiens, 48 h, mean ± SEM, read-out: GI50 (concentration causing 50% cell growth inhibition)
Protocol: (§3) Cell viability was analyzed using the colorimetric PrestoBlue assay (Gibco Invitrogen, #A13262, Carlsbad, CA, USA). Cells were seeded in 96-well microplates (#655077, Greiner, Courtaboeuf, France) at density of 2500 cells per well and allowed to adhere for 24 h before being treated for 48 h with the drugs at indicated concentrations or corresponding concentrations of DMSO as controls, in a final volume of 90 µL. After 48 h of treatment, 10 µL PrestoBlue was added to each well and cells were incubated for another 45 min. The absorbance of each well was measured using a FLUOstar microplate reader (Excitation: 544 nm; Emission: 580 nm, BMG Lab technology, Champagny/Marne, France).

RPE-1 cells = assay: Cell viability, PrestoBlue assay, RPE-1; type: cell-based; details: Homo sapiens, 48 h, mean ± SEM, read-out: GI50 (concentration causing 50% cell growth inhibition)
Protocol: as §3

tubulin = test system: tubulin; parameters: method as in PMID 32781579; details: cited from earlier work
[2] = test system: microtubular network of interphase cells; parameters: method as in PMID 32781579; details: cited from earlier work
porcine tubulin = porcine tubulin (Sus scrofa, UniProt P02550+P02554); assay: biochemical
porcine tubulin, sequence (P02554 whole entry): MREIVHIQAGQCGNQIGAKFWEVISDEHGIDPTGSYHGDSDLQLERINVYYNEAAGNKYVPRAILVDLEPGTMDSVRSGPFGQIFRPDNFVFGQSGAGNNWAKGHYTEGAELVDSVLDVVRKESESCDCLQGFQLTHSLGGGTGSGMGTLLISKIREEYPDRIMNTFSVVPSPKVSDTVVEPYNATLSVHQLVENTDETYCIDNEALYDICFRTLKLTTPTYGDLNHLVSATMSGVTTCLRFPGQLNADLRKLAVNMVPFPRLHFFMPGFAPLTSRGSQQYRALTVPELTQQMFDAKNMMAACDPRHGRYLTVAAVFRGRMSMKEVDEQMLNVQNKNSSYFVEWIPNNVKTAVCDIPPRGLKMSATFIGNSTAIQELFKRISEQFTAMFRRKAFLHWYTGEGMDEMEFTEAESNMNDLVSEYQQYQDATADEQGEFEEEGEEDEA
porcine tubulin, sequence (P02550 whole entry): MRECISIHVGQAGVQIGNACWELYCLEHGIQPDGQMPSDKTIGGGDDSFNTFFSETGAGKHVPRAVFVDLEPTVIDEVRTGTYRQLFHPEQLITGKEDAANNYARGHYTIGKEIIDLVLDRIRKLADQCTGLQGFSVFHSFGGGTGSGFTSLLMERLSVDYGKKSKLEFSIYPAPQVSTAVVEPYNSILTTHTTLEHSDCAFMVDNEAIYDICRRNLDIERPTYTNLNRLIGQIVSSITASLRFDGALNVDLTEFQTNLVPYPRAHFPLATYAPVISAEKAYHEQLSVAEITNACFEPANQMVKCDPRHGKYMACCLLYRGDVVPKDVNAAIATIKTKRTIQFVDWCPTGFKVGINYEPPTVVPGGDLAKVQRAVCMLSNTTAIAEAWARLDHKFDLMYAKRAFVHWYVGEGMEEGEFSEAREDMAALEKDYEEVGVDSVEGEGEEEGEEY
Protocol: Tubulin polymerization kit ((#BK004) was purchased from Cytoskeleton, Inc. (Denver, CO, USA). To study the effect of the compounds on MT assembly, the absorbance-based in vitro tubulin polymerization assay was performed following the manufacturer’s protocol. The reaction mixture containing porcine tubulin (40 µM) in G-PEM buffer (80 mM PIPES pH 6.9, 2.0 mM MgCl2, 0.5 mM EGTA, and 5% glycerol) supplemented with 1.0 mM GTP, in the presence of DMSO (0.18%) or the compound to be tested, was prepared and added to each well of a 96-well plate (half area, #675096, Greiner Bio One, Courtaboeuf, France). Tubulin polymerization was monitored by the increase in absorbance over time, measured by a CLARIOstar^plus Microplate reader from BMG Lab technology (Champagny-sur-Marne, France).

SMILES: COc1ccc(/C=C\c2cc(OC)c(OC)c(OC)c2)cc1O [C-A4, combretastatin-A4]
- IC50 [1]: 4.5 ± 0.76 nM
- state of the MT network by immunofluorescence (HeLa cells microtubules): only few MTs remain
- effect on cell microtubules by immunofluorescence (RPE1 cell microtubules): depolymerized cell microtubules
- GI50 (HeLa cells): 0.93 ± 0.07 nM
- GI50 (RPE-1 cells): 4.16 ± 1.42 nM

SMILES: Cc1cc(-n2cccc2)c(C)c2c1[nH]c1ccc(Cl)cc12 [Carba1]
- effect on tubulin assembly kinetics (tubulin): visible depolymerizing effect
- effect on the microtubular network of interphase cells [2]: no detectable effect

SMILES: COc1cc2c(c(OC)c1OC)-c1ccc(OC)c(=O)cc1[C@@H](NC(C)=O)CC2 [colchicine]
- state of the MT network by immunofluorescence (HeLa cells microtubules): a MT network is still present

SMILES: COC(=O)Nc1nc2ccc(C(=O)c3cccs3)cc2[nH]1 [nocodazole]
- IC50 (porcine tubulin): ~5000 nM
- concentration giving almost complete depolymerization / inhibition of tubulin assembly (porcine tubulin; tubulin 40 µM): ≥ 40 µM
- IC50 [1]: 350 ± 76.4 nM
- state of the MT network by immunofluorescence (HeLa cells microtubules): a MT network is still present
- GI50 (HeLa cells): 49.3 ± 2.6 nM
- GI50 (RPE-1 cells): 81.7 ± 4.41 nM

SMILES: CC[C@]1(O)C[C@@H]2CN(CCc3c([nH]c4ccccc34)[C@@](C(=O)OC)(c3cc4c(cc3OC)N(C)[C@H]3[C@@](O)(C(=O)OC)[C@H](OC(C)=O)[C@]5(CC)C=CCN6CC[C@]43[C@@H]65)C2)C1 [vinblastine]
- IC50 (porcine tubulin): ~1000 nM
- IC50 [1]: 4.83 ± 0.17 nM
- state of the MT network by immunofluorescence (HeLa cells microtubules): only few MTs remain
- effect on cell microtubules by immunofluorescence (RPE1 cell microtubules): depolymerized cell microtubules
- GI50 (HeLa cells): 0.73 ± 0.02 nM
- GI50 (RPE-1 cells): 0.7 ± 0.77 nM

Reference: publication PMC8533752, “Characterization of Microtubule Destabilizing Drugs: A Quantitative Cell-Based Assay That Bridges the Gap between Tubulin Based- and Cytotoxicity Assays” (Cancers, 2021)
